Results on eight molecules are retold here after patent US7629156B2, “Ethanol production in fermentation of mixed sugars containing xylose” (E.I. du Pont de Nemours and Company, priority 2006, dated 2009).

Molecules are shown by their SMILES.

What all share (assay type): cell-based, Zymomonas mobilis
The test system of assay [1] is ZW658 strain. The experiment in a line: Tube fermentation of ZW658 on glucose and xylose with various sugar alcohols (Example 14). As for the experimental part:
(§1) Approximately 1 ml of well mixed sample was obtained from flask or fermentor. First the sample absorbance was measured directly with a spectrophotometer (Amersham Biosciences Ultrospec 3300pro, GE Healthcare, Piscataway, N.J., USA). If the reading was lower than 0.6 unit, no dilution was needed. If the reading was higher than 0.6 unit, the sample was diluted with culture medium until the actual reading was in the range of 0.1 to 0.6 unit. The original OD was calculated from the dilution ratio and the actual reading.
(§2) The analysis of sugars, acetate, ethanol, and other by-products was done with an Agilent 1100 series HPLC and Agilent ChemStation software for LC 3D. The column was BioRad Aminex HPX-87H(HPLC Organic Analysis Column 125-0140) with BioRad Micro-Guard Cartridge Cation-H (125-0129). The operating conditions were:
In six sterilized 50 ml screw-cap centrifuge tubes (Cat. No. 21008-178, VWR International, USA), 200 μl of ZW658 strain glycerol stock at OD600 of approximately 10 was inoculated into each flask with 25 ml of aqueous solution containing 92 g/L glucose, 82 g/L xylose, 10 g/L yeast extract (YE), 2 g/L KH2PO4, 1 g/L MgSO4.7H2O, and 10 mM of D-sorbitol, L-sorbitol, D-threitol, myo-inositol, or xylitol. The control had no addition of sugar alcohol. Initial pH was adjusted to 5.5 with 4 N H3PO4 solution. Fermentation was conducted at 33° C. and pH was not controlled. Samples were taken periodically between 0 and 48 hr. Samples were filtered through 0.22 micron filters, and the filtrates were analyzed by HPLC as described in General Methods for glucose, xylose, xylitol, and ethanol. Samples were diluted with medium (as described in General Methods) and the OD600 was measured to monitor cell growth. Results of growth and glucose utilization are given in FIGS. 22A and 22B, respectively. Results of xylose utilization and ethanol production are given in FIGS. 23A and 23B, respectively. Cultures with D-sorbitol or L-sorbitol grew faster and better than the control. After 48 hours, the OD600 were 6.2 and 5.2, respectively, for cultures supplemented with D-sorbitol or L-sorbitol; while the OD600 were less than 1 for other cultures. […] The presence of D-sorbitol or L-sorbitol allowed more xylose utilization, without production of xylitol.

Assay [2] relates to ZW658 strain. The experiment in a line: Tube fermentation of ZW658 on glucose and xylose with various sugar alcohols (Example 13). The following applies: for ethanol production / xylose utilization: sugar alcohol in the medium vs control. As for the experimental part: as §1, §2
In eight sterilized 50 ml screw-cap centrifuge tubes (Cat. No. 21008-178, VWR International, USA), 200 μl of ZW658 strain glycerol stock at OD600 of approximately 10 was inoculated into each flask with 25 ml of aqueous solution containing 92 g/L glucose, 82 g/L xylose, 10 g/L yeast extract (YE), 2 g/L KH2PO4, 1 g/L MgSO4.7H2O, and either 10 mM of sorbitol, arabitol, adonitol (also called ribitol), or galactitol; or 50 mM of arabitol, adonitol, or galactitol. The control had no sugar alcohol added. Initial pH was adjusted to 5.5 with 4 N H3PO4 solution. Fermentation was conducted at 33° C. and pH was not controlled. Samples were taken periodically between 0 and 40 hr. Samples were filtered through 0.22 micron filters, and the filtrates were analyzed by HPLC as described in General Methods for glucose, xylose, xylitol, and ethanol. Samples were diluted with medium (as described in General Methods) and the OD600 was measured to monitor cell growth. Results of growth and glucose utilization are given in FIGS. 20A and 20B, respectively. Results of xylose utilization and ethanol production are given in FIGS. 21A and 21B, respectively. Cultures with sorbitol or galactitol grew much faster and better than the control. Cultures with adonitol also grew better. After 40 hours, the OD600 were 7 to 8, for cultures supplemented with sorbitol or galactitol; the OD600 were about 5, for cultures supplemented with adonitol; while the OD600 were less than 1 for other cultures. […] The presence of sorbitol, galactitol, or adonitol allowed more xylose utilization, without production of xylitol.

Assay [3] relates to ZW658 strain. The experiment in a line: Flask fermentation of ZW658 on glucose and xylose with acetate and various polyols. The following applies: 10 mM polyol, 3 g/L acetate; for OD600: after 32 hours, total sugar about 160 g/L. As for the experimental part: as §1, §2
(§3) Glycerol stock of seed frozen at −80° C. was thawed, then inoculated into sterile culture tubes with mixture of 60 g/L glucose, 20 g/L xylose, 10 g/L yeast extract (YE), 10 g/L KH2PO4, 2 g/L (NH4)2SO4, and 1 g/L MgSO4. Initial pH was adjusted to 5.5 with 4 N KOH. This revival culture was grown statically overnight at 37° C. It was transferred into shake flasks with 75 g/L glucose, 25 g/L xylose, 10 g/L yeast extract (YE), 10 g/L KH2PO4, 2 g/L (NH4)2SO4, and 1 g/L MgSO4. Initial pH was adjusted to 5.5 with 4 N KOH. Growth was monitored by measuring OD600. When the OD reached approximately 5, a certain volume of the seed was withdrawn into a sterile syringe for inoculation.
In five sterilized 125 ml Erlenmeyer culture flasks (Cat. No. 30180-036, VWR International, USA), 10 ml of ZW658 strain seed culture at OD600 of approximately 5 was inoculated into each flask with 100 ml of aqueous solution containing 100 g/L glucose, 80 g/L xylose, 3 g/L acetate, 10 g/L yeast extract (YE), 2 g/L KH2PO4, 1 g/L MgSO4.7H2O, and 4 g/L KHCO3, and 10 mM of the following polyols: erythritol, sorbitol, mannitol, maltitol, or lactitol; or 5 mM sorbitol plus 5 mM maltitol, or 5 mM sorbitol plus 5 mM lactitol. After inoculation, the total sugar concentration was about 160 g/L due to dilution by the seed culture. Initial pH was adjusted to 5.5 with 4 N H3PO4 solution. Mixing speed was set at 150 rpm. Fermentation was conducted at 33° C. and pH was not controlled. Samples were taken periodically. Samples were filtered through 0.22 micron filters, and the filtrates were analyzed by HPLC as described in General Methods for compounds including glucose, xylose, ethanol, and acetate. Samples were diluted with medium (as described in General Methods) and the OD600 was measured to monitor cell growth.

Assay [4] relates to ZW658 strain. The experiment in a line: Flask fermentation of ZW658 on glucose and xylose with various polyols. The following applies: 10 mM polyol; for ethanol production / xylose utilization: mixed sugars; for OD600: after 32 hours, total sugar about 160 g/L, 33° C. As for the experimental part: as §1, §2, §3
In five sterilized 125 ml Erlenmeyer culture flasks (Cat. No. 30180-036, VWR International, USA), 10 ml of ZW658 strain seed culture at OD600 of approximately 5 was inoculated into each flask with 100 ml of aqueous solution containing 100 g/L glucose, 80 g/L xylose, 10 g/L yeast extract (YE), 2 g/L KH2PO4, 1 g/L MgSO4.7H2O, and 4 g/L KHCO3, and 10 mM of one of the following polyols: erythritol, sorbitol, mannitol, maltitol, or lactitol. After inoculation, the total sugar concentration was about 160 g/L due to dilution by the seed culture. Initial pH was adjusted to 5.5 with 4 N H3PO4 solution. Mixing speed was set at 150 rpm. Fermentation was conducted at 33° C. and pH was not controlled. Samples were taken periodically. Samples were filtered through 0.22 micron filters, and the filtrates were analyzed by HPLC as described in General Methods for compounds including glucose, xylose, ethanol, xylitol, and acetic acid. Samples were diluted with medium (as described in General Methods) and the OD600 was measured to monitor cell growth. […] Cultures with sorbitol or mannitol grew faster and better. After 32 hours, the OD600 were 13.94 and 13.92, respectively, for cultures supplemented with sorbitol or mannitol; meanwhile, the OD600 were 9.48, 9.02, and 9.24, respectively, for cultures supplemented with erythritol, maltitol, or lactitol. […] The presence of sorbitol or mannitol allowed more xylose utilization, without production of xylitol.

In assay [5] the test system is ZW658 strain. The experiment in a line: 1-liter fermentor, ZW658 on high concentration glucose and xylose with sorbitol or glutamate. As for the experimental part: as §1, §2, §3
In a sterilized 1-liter fermentor (BIOSTAT® B-DCU system, Sartorius BBI System Inc., Bethlehem, Pa., USA), 50 ml of ZW658 strain seed culture at Optical Density of approximately 5 (measured at 600 nm) was inoculated into 450 ml of aqueous solution containing sugars and medium. The final mixed broth contained 100 g/L glucose, 85.1 g/L xylose, 10 g/L yeast extract (YE), 2 g/L KH2PO4, and 10 mM sorbitol. pH was adjusted to 5.5 with 4 N KOH solution. Mixing speed was set at 150 rpm. Fermentation was conducted at 33° C. and pH 5.5. Samples were taken periodically. Samples were filtered through 0.22 micron filters, and the filtrates were analyzed by HPLC as described in General Methods for compounds including glucose, xylose, ethanol, and acetate. Samples were also diluted with medium (as described in General Methods) and the OD600 was measured to monitor cell growth. […] The by-product xylitol concentration was 0.67 g/L at 29 hr, and increased to 0.95 g/L at 64 hr.
In a sterilized 1-liter fermentor (BIOSTAT® B-DCU system, Sartorius BBI System Inc., Bethlehem, Pa., USA), 50 ml of ZW658 strain seed culture at OD600 of approximately 5 was inoculated into 450 ml of aqueous solution containing sugars and medium. The final mixed broth contained 98.0 g/L glucose, 81.2 g/L xylose, 10 g/L yeast extract (YE), 2 g/L KH2PO4, and 10 mM potassium glutamate. pH was adjusted to 5.5 with 4 N KOH solution. Mixing speed was set at 150 rpm. Fermentation was conducted at 33° C. and pH 5.5. Samples were taken periodically. Samples were filtered through 0.22 micron filters, and the filtrates were analyzed by HPLC as described in General Methods for compounds including glucose, xylose, xylitol, ethanol, and acetic acid. Samples were also diluted with medium (as described in General Methods) and the OD600 was measured to monitor cell growth. […] However, xylose was not well-utilized, cell growth and ethanol production were reduced as compared to that in the presence of sorbitol (Example 4), and xylitol production increased.

Setting [6] is: after 63.75 hours, 10 mM potassium glutamate.
Setting [7] is: in the presence of glutamate, mixed sugars.

On to `OC[C@@H](O)[C@@H](O)[C@H](O)[C@@H](O)CO` [D-sorbitol], for which, in the assay on ZW658 strain [1] (10 mM sugar alcohol vs control), the ethanol production entry is “ethanol production was also better” and the xylose utilization result is on record as “More xylose was utilized”. Further, the OD600 in the assay with ZW658 strain [1] (after 48 hours, 10 mM sugar alcohol, 92 g/L glucose, 82 g/L xylose) is listed as 6.2.

Take `OC[C@@H](O)[C@@H](O)[C@@H](O)CO` [adonitol]: the OD600 result in the assay with ZW658 strain [2] (after 40 hours, 10 mM sorbitol, 10 mM or 50 mM other sugar alcohols, 92 g/L glucose, 82 g/L xylose) is given as “about 5”. Moreover, in the assay with ZW658 strain [2], the ethanol production result is “ethanol production was also better” and the xylose utilization entry is listed as “More xylose was utilized”.

With `OC[C@@H](O)[C@@H](O)CO` [erythritol], the OD600 in the assay with ZW658 strain [3] was 5.20. Also, in the assay with ZW658 strain [4], the ethanol production entry is “do not increase ethanol production”, the xylose utilization entry is recorded as “nor do they increase xylose utilization” and the OD600 is reported as 9.48.

For `OC[C@@H](O)[C@H](O)[C@H](O)[C@@H](O)CO` [galactitol], in the assay on ZW658 strain [2], the ethanol production result was “ethanol production was also better” and the xylose utilization entry was “More xylose was utilized”.

As for `N[C@@H](CCC(=O)[O-])C(=O)[O-].[K+].[K+]` [glutamate, potassium glutamate, reference compound], in the assay with ZW658 strain [5] (10 mM potassium glutamate), the “effect on lag period” value was “reduced the lag period” and the “time at which glucose concentration reached 0” value is 24 h. In addition, in the assay with ZW658 strain [5] (setting [6]), the “OD600 cells grew to” value worked out at 6.9, the by-product xylitol concentration came to 4.38 g/L and the ethanol concentration is 72.3 g/L. In addition, in the assay with ZW658 strain [5] (after 63.75 hours, 98.0 g/L glucose, 81.2 g/L xylose, 10 mM potassium glutamate), the xylose concentration came to 21.2 g/L. For the same molecule, the glucose concentration in the assay with ZW658 strain [5] (after 63.75 hours, 98.0 g/L glucose, 81.2 g/L xylose, 10 mM potassium glutamate, 33° C., pH 5.5) worked out at 0 g/L. Moreover, in the assay on ZW658 strain [5] (setting [7]), the “effect on ethanol production” value is “ethanol production is not improved”, the “effect on xylitol production” value is recorded as “xylitol production is not reduced” and the “effect on xylose utilization” value was “xylose utilization is not enhanced”.

For `OC[C@@H](O)[C@@H](O[C@@H]1O[C@H](CO)[C@H](O)[C@H](O)[C@H]1O)[C@H](O)[C@@H](O)CO` [lactitol], in the assay on ZW658 strain [3], the OD600 came out at 5.30. In addition, in the assay on ZW658 strain [4], the ethanol production entry is “do not increase ethanol production”, the xylose utilization entry is on record as “nor do they increase xylose utilization” and the OD600 is 9.24.

`OC[C@@H](O)[C@@H](O[C@H]1O[C@H](CO)[C@@H](O)[C@H](O)[C@H]1O)[C@H](O)[C@@H](O)CO` [maltitol] had an OD600 in the assay on ZW658 strain [3] of 5.20. In the assay with ZW658 strain [4], the ethanol production entry was “do not increase ethanol production”, the xylose utilization entry is “nor do they increase xylose utilization” and the OD600 is 9.02.

`OC[C@@H](O)[C@@H](O)[C@H](O)[C@H](O)CO` [mannitol]: in the assay with ZW658 strain [3], the ethanol production entry was “ethanol production was also better”, the xylose utilization result is given as “More xylose was utilized” and the OD600 turned out to be 7.40. For the same molecule, in the assay with ZW658 strain [4], the ethanol production entry is on record as “ethanol production was also better”, the xylose utilization entry is recorded as “More xylose was utilized” and the OD600 came to 13.92.
